Test results reported in ChEMBL document CHEMBL5247604, “Discovery of novel hybrids containing clioquinol-1-benzyl-1,2,3,6-tetrahydropyridine as multi-target-directed ligands (MTDLs) against Alzheimer's disease” (Eur J Med Chem, 2022).
Active and inactive are the calls of the source. No cut-off for these calls is given here.

Columns and labels:
[1] = biological target: Acetylcholinesterase (Electrophorus electricus, UniProt O42275); assay: Inhibition of electric eel AChE using acetylthiocholine iodide as substrate preincubated for 15 mins followed by substrate addition by Ellman's method
[2] = Metal chelating activity assessed as Cu2+-compound complex formation by measuring red shift in presence of CuSO4 at 40 uM incubated for 30 mins by UV-Visible spectrophotometry
[3] = Metal chelating activity assessed as Fe2+-compound complex formation by measuring red shift in presence of FeSO4 at 40 uM incubated for 30 mins by UV-Visible spectrophotometry
[4] = Metal chelating activity assessed as Fe3+-compound complex formation by measuring red shift in presence of FeCl3 at 40 uM incubated for 30 mins by UV-Visible spectrophotometry
[5] = Metal chelating activity assessed as Zn2+-compound complex formation by measuring red shift in presence of ZnCl2 at 40 uM incubated for 30 mins by UV-Visible spectrophotometry
[6] = Metal chelating activity assessed as Al3+-compound complex formation by measuring red shift in presence of AlCl3 at 40 uM incubated for 30 mins by UV-Visible spectrophotometry
[7] = biological target: T1, Amyloid-beta precursor protein (Homo sapiens, UniProt P05067); assay: Inhibition of Cu2+ induced amyloid beta (1 to 42 ) (unknown origin) aggregation incubated for 24 hr by Thioflavin T based fluorometric assay
[8] = biological target: T1, Amyloid-beta precursor protein; assay: Inhibition of Cu2+ induced amyloid beta (1 to 42 ) (unknown origin) aggregation assessed as reduction in fibrils incubated for 24 hr by TEM analysis
[9] = biological target: T1, Amyloid-beta precursor protein; assay: Inhibition of amyloid beta (1 to 42 ) (unknown origin) self aggregation incubated for 24 hr by Thioflavin T based fluorometric assay
[10] = biological target: T1, Amyloid-beta precursor protein; assay: Inhibition of AChE induced HFIP-pretreated amyloid beta (1 to 42 ) (unknown origin) aggregation at 0.1 to 10 uM incubated for 24 hr by Thioflavin T based fluorometric assay; conditions: dose 0.1-10 µM
[11] = biological target: T1, Amyloid-beta precursor protein; assay: Inhibition of AChE induced HFIP-pretreated amyloid beta (1 to 42 ) (unknown origin) aggregation incubated for 24 hr by Thioflavin T based fluorometric assay
[12] = test system: SH-SY5Y; assay: Cytotoxicity against human SH-SY5Y cells assessed as reduction in cell viability upto 50 uM incubated for 24 hrs by MTT assay; assay type: toxicity, cell-based
[13] = biological target: Acetylcholinesterase (Homo sapiens, UniProt P22303); assay: Inhibition of AChE in human SH-SY5Ycells assessed as reduction AChE activity using acetylthiocholine as substrate incubated for 24 hrs by DTNB based Ellman's method; assay type: cell-based, SH-SY5Y
[14] = test system: SH-SY5Y; assay: Neuroprotective activity in human SH-SY5Y cells assessed as inhibition of okadaic acid-induced mitochondrial membrane potential by measuring increase in red-to-green fluorescence intensity ratio at 1 to 10 uM pretreated for 24 hrs followed by okadaic acid addition for 24 hrs by JC-1 dye based fluorescence analysis; assay type: functional, cell-based; conditions: dose 1-10 µM
[15] = test system: SH-SY5Y; assay: Neuroprotective activity in human SH-SY5Y cells assessed as inhibition of okadaic acid-induced mitochondrial membrane potential by measuring increase in red-to-green fluorescence intensity ratio pretreated for 24 hrs followed by okadaic acid addition for 24 hrs by JC-1 dye based fluorescence analysis; assay type: functional, cell-based
[16] = test system: SH-SY5Y; assay: Antioxidant activity against okadaic acid-induced ROS generation in human SH-SY5Y cells assessed as reduction in DCF fluorescence intensity at 1 to 10 uM pretreated for 24 hrs followed by okadaic acid addition for 24 hrs by DCFH-DA dye based fluorescence analysis; assay type: functional, cell-based; conditions: dose 1-10 µM
[17] = test system: SH-SY5Y; assay: Antioxidant activity against okadaic acid-induced ROS generation in human SH-SY5Y cells assessed as reduction in DCF fluorescence intensity pretreated for 24 hrs followed by okadaic acid addition for 24 hrs by DCFH-DA dye based fluorescence analysis; assay type: functional, cell-based
[18] = test system: SH-SY5Y; assay: Antialzheimer activity in human SH-SY5Y cells assessed as inhibition of GA-induced tau hyperphosphorylation at Ser199 residue at 0.1 to 3 uM incubated for 24 hrs by ELISA; assay type: functional, cell-based; conditions: dose 0.1-3 µM
[19] = test system: SH-SY5Y; assay: Antialzheimer activity in human SH-SY5Y cells assessed as inhibition of GA-induced tau hyperphosphorylation at Ser396 residue at 0.1 to 3 uM incubated for 24 hrs by ELISA; assay type: functional, cell-based; conditions: dose 0.1-3 µM
[20] = test system: SH-SY5Y; assay: Antialzheimer activity in human SH-SY5Y cells assessed as inhibition of GA-induced tau hyperphosphorylation at Ser199 residue incubated for 24 hrs by ELISA; assay type: functional, cell-based
[21] = test system: SH-SY5Y; assay: Antialzheimer activity in human SH-SY5Y cells assessed as inhibition of GA-induced tau hyperphosphorylation at Ser396 residue incubated for 24 hrs by ELISA; assay type: functional, cell-based
[22] = Acute toxicity in ICR mouse assessed as mortality at 1200 mg/kg, po and measured after 4 hrs; assay type: organism-based; conditions: in vivo
[23] = Acute toxicity in ICR mouse assessed as abnormal behavior at 1200 mg/kg, po and measured after 4 hrs; assay type: organism-based; conditions: in vivo
[24] = Acute toxicity in ICR mouse assessed as altered water consumption at 1200 mg/kg, po and measured after 4 hrs; assay type: organism-based; conditions: in vivo
[25] = Acute toxicity in ICR mouse assessed as altered food consumption at 1200 mg/kg, po and measured after 4 hrs; assay type: organism-based; conditions: in vivo
[26] = Acute toxicity in ICR mouse assessed as change in body weight at 1200 mg/kg, po and measured after 4 hrs; assay type: organism-based; conditions: in vivo
[27] = Acute toxicity in ICR mouse assessed as mortality at 1200 mg/kg, po and measured after 24 hrs; assay type: organism-based; conditions: in vivo
[28] = Acute toxicity in ICR mouse assessed as abnormal behavior at 1200 mg/kg, po and measured after 24 hrs; assay type: organism-based; conditions: in vivo
[29] = Acute toxicity in ICR mouse assessed as altered water consumption at 1200 mg/kg, po and measured after 24 hrs; assay type: organism-based; conditions: in vivo
[30] = Acute toxicity in ICR mouse assessed as altered food consumption at 1200 mg/kg, po and measured after 24 hrs; assay type: organism-based; conditions: in vivo
[31] = Acute toxicity in ICR mouse assessed as change in body weight at 1200 mg/kg, po and measured after 24 hrs; assay type: organism-based; conditions: in vivo
[32] = Acute toxicity in ICR mouse assessed as mortality at 1200 mg/kg, po and measured after 14 days; assay type: organism-based; conditions: in vivo, 336 h, time 14 day
[33] = Acute toxicity in ICR mouse assessed as abnormal behavior at 1200 mg/kg, po and measured after 14 days; assay type: organism-based; conditions: in vivo, 336 h, time 14 day
[34] = Acute toxicity in ICR mouse assessed as altered water consumption at 1200 mg/kg, po and measured after 14 days; assay type: organism-based; conditions: in vivo, 336 h, time 14 day
[35] = Acute toxicity in ICR mouse assessed as altered food consumption at 1200 mg/kg, po and measured after 14 days; assay type: organism-based; conditions: in vivo, 336 h, time 14 day
[36] = Acute toxicity in ICR mouse assessed as change in body weight at 1200 mg/kg, po and measured after 14 days; assay type: organism-based; conditions: in vivo, 336 h, time 14 day
[37] = test system: Mus musculus; assay: Antialzheimer activity in scopolamine-induced cognitive impairment ICR mouse model assessed as time latency to reach target at 15 mg/kg,ip qd for 10 days followed by scopolmaine-stimulation measured on day 16 by Morris water maze test (Rvb= 71.89 +/- 25.59 sec); assay type: functional; conditions: time 10 day
[38] = test system: Mus musculus; assay: Antialzheimer activity in scopolamine-induced cognitive impairment ICR mouse model assessed as distance to reach target at 15 mg/kg,ip qd for 10 days followed by scopolmaine-stimulation measured on day 16 by Morris water maze test (Rvb= 16.93 +/- 5.88 meter); assay type: functional; conditions: time 10 day
[39] = test system: Mus musculus; assay: Antialzheimer activity in human oligo-merized amyloid beta (1 to 42 residues)-induced cognitive impairment C57BL/6 mouse model assessed as decrease in escape latency at 15 mg/kg,ip qd for 10 days by Morris water maze test relative to control; assay type: functional, organism-based; conditions: time 10.0 day
[40] = test system: Mus musculus; assay: Antialzheimer activity in human oligo-merized amyloid beta (1 to 42 residues)-induced cognitive impairment C57BL/6 mouse model assessed as increase in percentage of time spent in the target quadrant at 15 mg/kg,ip qd for 10 days by Morris water maze test relative to control; assay type: functional, organism-based; conditions: time 10.0 day
[41] = test system: Mus musculus; assay: Antialzheimer activity in human oligo-merized amyloid beta (1 to 42 residues)-induced cognitive impairment C57BL/6 mouse model assessed as increase in ratio of brain to body weight at 15 mg/kg,ip qd for 10 days by Morris water maze test; assay type: functional, organism-based; conditions: time 10.0 day
[42] = test system: Mus musculus; assay: Antialzheimer activity in human oligo-merized amyloid beta (1 to 42 residues)-induced cognitive impairment C57BL/6 mouse model assessed as increase duration in novel arm at 15 mg/kg,ip qd for 10 days by Y-maze test relative to control; assay type: functional, organism-based; conditions: time 10.0 day
[43] = test system: Mus musculus; assay: Antialzheimer activity in human oligo-merized amyloid beta (1 to 42 residues)-induced cognitive impairment C57BL/6 mouse model assessed as decrease IL-1beta level in cortex at 15 mg/kg,ip qd for 10 days by ELISA; assay type: functional, organism-based; conditions: time 10.0 day
[44] = test system: Mus musculus; assay: Antialzheimer activity in human oligo-merized amyloid beta (1 to 42 residues)-induced cognitive impairment C57BL/6 mouse model assessed as decrease TNF-alpha level in cortex at 15 mg/kg,ip qd for 10 days by ELISA; assay type: functional, organism-based; conditions: time 10.0 day

T1 sequence (P05067 whole entry): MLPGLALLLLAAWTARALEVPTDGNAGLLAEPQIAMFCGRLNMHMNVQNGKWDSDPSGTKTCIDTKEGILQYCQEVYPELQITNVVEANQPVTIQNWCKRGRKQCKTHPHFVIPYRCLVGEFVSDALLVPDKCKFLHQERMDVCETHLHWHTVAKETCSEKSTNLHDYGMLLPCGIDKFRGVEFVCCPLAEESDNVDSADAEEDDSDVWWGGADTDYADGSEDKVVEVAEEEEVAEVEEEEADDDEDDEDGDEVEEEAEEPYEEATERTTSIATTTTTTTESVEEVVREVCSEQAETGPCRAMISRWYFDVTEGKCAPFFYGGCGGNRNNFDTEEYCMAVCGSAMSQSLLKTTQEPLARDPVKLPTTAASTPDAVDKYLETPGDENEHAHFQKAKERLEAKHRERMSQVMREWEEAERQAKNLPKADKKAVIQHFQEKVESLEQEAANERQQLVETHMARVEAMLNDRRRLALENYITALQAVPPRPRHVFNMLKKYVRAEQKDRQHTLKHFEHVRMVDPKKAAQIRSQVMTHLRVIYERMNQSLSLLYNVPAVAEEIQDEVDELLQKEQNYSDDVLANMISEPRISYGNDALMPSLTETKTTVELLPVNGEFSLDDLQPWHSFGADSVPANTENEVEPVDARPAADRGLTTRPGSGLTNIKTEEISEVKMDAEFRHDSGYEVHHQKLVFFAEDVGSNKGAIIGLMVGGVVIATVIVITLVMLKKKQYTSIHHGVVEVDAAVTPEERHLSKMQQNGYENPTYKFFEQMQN
Sequence of Acetylcholinesterase (Homo sapiens, UniProt P22303) (P22303 whole entry): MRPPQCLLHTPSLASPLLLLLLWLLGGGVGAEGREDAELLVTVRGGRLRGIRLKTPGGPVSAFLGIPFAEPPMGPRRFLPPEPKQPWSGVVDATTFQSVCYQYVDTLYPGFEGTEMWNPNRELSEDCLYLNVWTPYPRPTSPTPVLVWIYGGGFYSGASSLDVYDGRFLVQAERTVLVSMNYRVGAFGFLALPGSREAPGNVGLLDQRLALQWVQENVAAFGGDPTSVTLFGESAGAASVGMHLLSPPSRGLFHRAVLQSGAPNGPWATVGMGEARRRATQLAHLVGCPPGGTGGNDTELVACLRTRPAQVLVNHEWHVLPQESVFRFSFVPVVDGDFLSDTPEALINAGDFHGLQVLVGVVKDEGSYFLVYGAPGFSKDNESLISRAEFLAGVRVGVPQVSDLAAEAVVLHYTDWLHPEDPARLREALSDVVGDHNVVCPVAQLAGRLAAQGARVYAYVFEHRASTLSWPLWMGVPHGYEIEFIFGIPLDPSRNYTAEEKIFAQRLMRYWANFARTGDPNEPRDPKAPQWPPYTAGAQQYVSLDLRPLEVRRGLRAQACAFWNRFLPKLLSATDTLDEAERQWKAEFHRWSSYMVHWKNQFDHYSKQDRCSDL
Sequence of Acetylcholinesterase (Electrophorus electricus, UniProt O42275) (O42275 whole entry): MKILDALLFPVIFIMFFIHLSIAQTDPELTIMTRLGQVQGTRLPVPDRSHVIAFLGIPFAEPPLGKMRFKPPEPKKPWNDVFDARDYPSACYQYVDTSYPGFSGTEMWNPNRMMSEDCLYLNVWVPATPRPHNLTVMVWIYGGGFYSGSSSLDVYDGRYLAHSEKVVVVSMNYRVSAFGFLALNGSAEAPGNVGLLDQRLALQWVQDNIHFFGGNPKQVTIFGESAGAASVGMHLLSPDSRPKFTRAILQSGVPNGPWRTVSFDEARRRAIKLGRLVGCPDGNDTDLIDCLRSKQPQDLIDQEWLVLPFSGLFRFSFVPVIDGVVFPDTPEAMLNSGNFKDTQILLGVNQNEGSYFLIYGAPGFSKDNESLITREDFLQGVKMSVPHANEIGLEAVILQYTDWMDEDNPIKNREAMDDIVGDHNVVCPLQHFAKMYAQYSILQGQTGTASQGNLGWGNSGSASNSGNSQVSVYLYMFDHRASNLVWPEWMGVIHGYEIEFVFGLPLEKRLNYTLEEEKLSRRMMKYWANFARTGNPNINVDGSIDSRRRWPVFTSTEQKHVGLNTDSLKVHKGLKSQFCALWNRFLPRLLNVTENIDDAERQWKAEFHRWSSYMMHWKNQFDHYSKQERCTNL

For `Cl.Oc1cccc2ccc(/C=C/C3=CCN(Cc4ccccc4C(F)(F)F)CC3)nc12`, the IC50 [1] was 0.11 µM, the Activity [2] was “Active” and the Activity [3] was “Active”. For the same compound, the Activity [4] was “Active”, the Activity [5] was “Active” and the Activity [6] was “Active”. For the same compound, the inhibition [7] was “Active”, the inhibition [8] was “Active” and the inhibition [9] was “inactive”. The inhibition [10] was “Dose-Dependent Effect”, the IC50 [11] was 1660 µM and the Activity [12] was “Non-Toxic”. For the same compound, the IC50 [13] was 161 µM, the Activity [14] was “Active” and the IC50 [15] was 434 µM. For the same compound, the Activity [16] was “Active”, the IC50 [17] was 213 µM and the Activity [18] was “Active”. The Activity [19] was “Active”, the IC50 [20] was 82 µM and the IC50 [21] was 138 µM. For the same compound, the Activity [22] was “Non-Toxic”, the Activity [23] was “Non-Toxic” and the Activity [24] was “Non-Toxic”. For the same compound, the Activity [25] was “Non-Toxic”, the Activity [26] was “Non-Toxic” and the Activity [27] was “Non-Toxic”. For the same compound, the Activity [28] was “Non-Toxic”, the Activity [29] was “Non-Toxic” and the Activity [30] was “Non-Toxic”. For the same compound, the Activity [31] was “Non-Toxic”, the Activity [32] was “Non-Toxic” and the Activity [33] was “Non-Toxic”. For the same compound, the Activity [34] was “Non-Toxic”, the Activity [35] was “Non-Toxic” and the Activity [36] was “Non-Toxic”. For the same compound, the Time [37] was 35.22 s, the Activity [38] was 8.05 m and the Activity [39] was “Active”. For the same compound, the Activity [40] was “Active”, the Activity [41] was “Active” and the Activity [42] was “Active”. The Activity [43] was “Active” and the Activity [44] was “Active”.
